Test results published in PubChem BioAssay AID1996.
Values after ≈ are worked out from the molar mass of the structure shown.

conditions: buffer; pH 7.4; 200.0 µM

Structure (SMILES) | solubility kinetic
COc1ccccc1CNC(=O)C1(C)Oc2cccnc2NC1=O (stereo not drawn) | > 49.1 µg/mL
CC(=O)Nc1cccc(NC(=O)C2C3C=CC(C3)C2C(=O)O)c1 (stereo not drawn) | > 47.2 µg/mL
O=c1c(Cc2ccc(Cl)cc2)c(O)ccn1Cc1cccs1 | 4.6 µg/mL (≈ 13.9 µM)
CCOC(=O)C1CCCN(Cc2cc(=O)oc3cc(C)c(C)cc23)C1 (stereo not drawn) | 23.1 µg/mL (≈ 67.3 µM)
O=C(CNC(=O)c1cccc(OC(F)F)c1)Nc1ccc(Cl)cc1 | 3.4 µg/mL (≈ 9.58 µM)
COc1ccc(C(=O)NCC(C)NC(=O)c2ccc(OC)c(OC)c2)cc1OC (stereo not drawn) | 8.9 µg/mL (≈ 22.1 µM)
CS(=O)(=O)N(CC(=O)Nc1cccc(Br)c1)Cc1ccccc1 | 51.3 µg/mL (≈ 129 µM)
CC(=O)Nc1ccc(Nc2cc(C)c3ccccc3n2)cc1 | 41.6 µg/mL (≈ 143 µM)
O=C1N(c2ccccc2)C(=Nc2ccccc2)SC12CC2 | 41.5 µg/mL (≈ 141 µM)
O=S(=O)(c1ccc(Cl)cc1)N1CCN(Cc2cccnc2)CC1 | 49.4 µg/mL (≈ 140 µM)
CC1(C(=O)OCC(=O)NCc2ccc(Cl)cc2)CC1(Cl)Cl (stereo not drawn) | 52.5 µg/mL (≈ 150 µM)
COc1ccc2c(c1)c(C(C)=O)c(C)n2CCc1ccccc1 | < 0.7 µg/mL
Cc1nc2ccc(NC(=O)CSc3ccccc3)cc2s1 | 46 µg/mL (≈ 146 µM)
CCn1c(C)cc(C)c(C#N)c1=O | > 26.4 µg/mL
O=C1CN(C(=O)c2ccc(Cl)c([N+](=O)[O-])c2)c2ccccc2N1 | > 49.8 µg/mL
COc1cc(C(N)=O)cc(Cl)c1OC | > 32.3 µg/mL
CC(=O)c1sc(NC(=O)c2ccc(C(C)(C)C)cc2)nc1C | < 0.3 µg/mL
CCC(CC)C(=O)c1c[nH]c(C(=O)NCCOC)c1 | > 40 µg/mL
CCCc1c(C)[nH]c2ccc(C(=O)O)cc2c1=S | > 39.2 µg/mL
O=C(CN1C(=O)C2CCCCC2C1=O)Nc1cccc(C(F)(F)F)c1 (stereo not drawn) | > 53.1 µg/mL
Cc1cc2oc(=O)cc(CN3CCOCC3)c2cc1C(C)C | 3.4 µg/mL (≈ 11.3 µM)
Cc1cc(C)c(NC(=O)COC(=O)C2CCCCC2)c(C)c1 | 5.6 µg/mL (≈ 18.5 µM)
C/C(CC(=O)NC(C)c1ccccc1)=N\NC(N)=S (stereo not drawn) | > 41.8 µg/mL
Cc1cccc(NC(=O)N2CCCCCC2)c1 | > 34.8 µg/mL
O=C(Nc1ccc(Cl)cc1)C1CCCCN1S(=O)(=O)c1ccccc1 (stereo not drawn) | 24.7 µg/mL (≈ 65.2 µM)

Structure (SMILES) | solubility kinetic
Cl.c1ccc2c(c1)CC(N1CCCCC1)c1ccccc1S2 (stereo not drawn) | 1.8 µg/mL
COc1ccc(C(=O)N[C@H](C(=O)Nc2sccc2C(N)=O)C(C)C)cc1 | > 56.3 µg/mL
O=C(C[n+]1ccccc1)N1CCCc2ccccc21.[Cl-] | > 43.3 µg/mL
Cn1c2ccccc2n2c(=O)cc(-c3ccccc3)c(C#N)c12 | < 0.2 µg/mL
Cc1cccc(C)c1OCC(=O)NCC1CCCO1 (stereo not drawn) | 39.5 µg/mL (≈ 150 µM)
C[n+]1ccccc1/C=N/O.[I-] | > 39.6 µg/mL
Cc1snc(SCc2c(F)cccc2Cl)c1C#N | < 0.3 µg/mL
Cc1cc(C)cc(OC(=O)c2cccnc2)c1 | 30.6 µg/mL (≈ 135 µM)
CCOC(=O)c1cn2ccc(C)cc2n1 | > 30.6 µg/mL
CCC(C)Nc1nc(N)c([N+](=O)[O-])c(NCCO)n1 (stereo not drawn) | 39.6 µg/mL (≈ 147 µM)
CN1CCC2(CC1)NC(=O)c1ccccc1N2.Cl | > 40.2 µg/mL
C=CCn1c(O)c(C(C)=NCCCn2ccnc2)c(=O)[nH]c1=O | > 47.6 µg/mL
COc1ccc(N(C)C(=O)Nc2ccc3nsnc3c2)cc1 | 27.5 µg/mL (≈ 87.5 µM)
O=C(O)C1Cc2ccccc2CN1C(=O)c1ccco1 (stereo not drawn) | 30.7 µg/mL (≈ 113 µM)
O=C(NC1CCN(Cc2ccccc2)CC1)c1ccc(Cl)cc1Cl | > 54.5 µg/mL
O=C(NCc1ccccn1)C(=O)Nc1nc(-c2ccccc2)cs1 | 1.6 µg/mL (≈ 4.73 µM)
O=C(COc1ccc(-n2ccnc2)cc1)Nc1cccc(Cl)c1 | 23.7 µg/mL (≈ 72.3 µM)
N#Cc1nc(-c2ccc(F)cc2)oc1NCc1ccco1 | 1.1 µg/mL (≈ 3.88 µM)
COc1ccc(OCC(=O)NC2CCSc3ccccc32)cc1 (stereo not drawn) | 38.6 µg/mL (≈ 117 µM)
CSc1ccc(S(=O)(=O)Nc2ccc3c(c2)NC(=O)CC3)cc1 | 8 µg/mL (≈ 23 µM)
COC(=O)CCC(=O)Nc1nccs1 | > 32.1 µg/mL
Cc1ccc(S(=O)(=O)NC23CC4CC(CC(C4)C2)C3)cc1 | 2.4 µg/mL (≈ 7.86 µM)
Cc1ccccc1C(=O)NNC(=O)c1ccc2nc[nH]c2c1 | > 44.1 µg/mL
COc1ccc2oc(C(=O)N3CCN(c4ncccn4)CC3)c(C)c2c1 | 4.8 µg/mL (≈ 13.6 µM)
COc1cc(C(=O)OC(C)C(=O)N2CCCC2)cc2c1OCCO2 (stereo not drawn) | > 50.3 µg/mL

Structure (SMILES) | solubility kinetic
CC(C)N1CCNCC1.Cl | 23.1 µg/mL
Cc1noc(C)c1-c1nc(CS(=O)(=O)c2ccc(F)cc2)no1 | 43.4 µg/mL (≈ 129 µM)
COc1cccc(NC(=O)C2C3C=CC(C3)C2C(=O)O)c1 (stereo not drawn) | 27.1 µg/mL (≈ 94.3 µM)
COc1ccc(CCNC(=O)C2CCN(C(=O)c3ccccc3)CC2)cc1 | 49.2 µg/mL (≈ 134 µM)
O=C(CSc1ccccc1)Nc1ccc2c(c1)OCCO2 | > 45.2 µg/mL
CC(=O)Nc1sc2c(c1C(N)=O)CCN(Cc1ccccc1)C2.Cl | > 54.9 µg/mL
O=C(O)CNC1c2ccccc2CSc2ccccc21 (stereo not drawn) | > 42.8 µg/mL
COc1ccc2c(CC(=O)OCC(=O)NC(N)=O)coc2c1 | 18.1 µg/mL (≈ 59.1 µM)
Cc1cccc(C)c1NC(=S)N1CCC(c2ccccc2)C1 (stereo not drawn) | 34.1 µg/mL (≈ 110 µM)
O=C(CCS(=O)(=O)c1ccccc1Cl)NC1CCCCCC1 | > 51.6 µg/mL
COc1cc2c(cc1OC)C(NC(=O)C(F)(F)F)CNC2=O (stereo not drawn) | > 47.7 µg/mL
CC(C)c1ccc(NC(=S)NNC(=O)c2cccnc2)cc1 | > 47.2 µg/mL
O=C(Cc1cccc2ccccc12)Nc1ccc(N2CCOCC2)cc1 | 1.7 µg/mL (≈ 4.91 µM)
COc1cccc(CN(C)C(=O)CCC(=O)c2cc(Br)ccc2OC)c1 | 18.3 µg/mL (≈ 43.5 µM)
O=C(C[n+]1ccc(/C=N/O)cc1)NCc1ccccc1.[Cl-] | 41.3 µg/mL
COc1ccc(C2C(C(C)=O)=C(O)C(=O)N2c2ccccn2)cc1 (stereo not drawn) | > 48.7 µg/mL
O=C(NCCN1CCOCC1)Nc1cccc(Cl)c1 | 40.1 µg/mL (≈ 141 µM)
Nc1nc(Nc2ccc(Cl)cc2)nc(NCCO)c1[N+](=O)[O-] | 3.1 µg/mL (≈ 9.55 µM)
CC1Oc2ccccc2N(CC(=O)Nc2ccc(F)cc2)C1=O (stereo not drawn) | 12.6 µg/mL (≈ 40.1 µM)
CCn1cnc2c(oc3ccccc32)c1=O | 31.9 µg/mL (≈ 149 µM)
Cc1nc(N2CCN(C(=O)c3ccco3)CC2)[nH]c(=O)c1C | > 45.3 µg/mL
O=C(CN1CCCCC1)NC(=O)Nc1ccccc1F | > 41.9 µg/mL
N#CCCN1CCN(C(=O)c2c(N)no[n+]2[O-])CC1 | > 39.9 µg/mL
COc1cc2c(cc1OC)C(c1cccc([N+](=O)[O-])c1)=NCC2 | > 46.8 µg/mL
Cc1cccc(C(=O)OCC(=O)N2CCCCCC2)c1C | > 43.4 µg/mL

Structure (SMILES) | solubility kinetic
CSc1ccc(S(=O)(=O)N2CC(=O)Nc3ccccc32)cc1 | 14.4 µg/mL (≈ 43.1 µM)
Cc1ccc(N2C(=O)c3ccccc3C2=O)cc1 | 2.7 µg/mL (≈ 11.4 µM)
Cc1ccsc1/C=N/Nc1ncnc2nc[nH]c12 | > 38.7 µg/mL
CC(=O)c1ccc(OCCOc2ccc(C#N)cc2)cc1 | 6.8 µg/mL (≈ 24.2 µM)
O=C(NC1CCN(C(=O)NCc2ccccc2)CC1)c1ccc(F)cc1 | 9.3 µg/mL (≈ 26.2 µM)
N#C/C(=C\c1ccncc1)c1nc2ccccc2o1 | 12.9 µg/mL (≈ 52.2 µM)
CCS(=O)(=O)c1ccc(O)c(NC(=O)CCCC(=O)O)c1 | 41.5 µg/mL (≈ 132 µM)
COc1ccc(CNC(=O)COC(=O)c2cc3ccccc3cc2O)cc1OC | 25.9 µg/mL (≈ 65.5 µM)
O=C(NCCOc1ccc(Cl)cc1)C1CCCCC1 | 14.9 µg/mL (≈ 52.9 µM)
CC(=O)Nc1ccc(CC#N)cc1 | > 26.1 µg/mL
CC(=O)Nc1ccc(S(=O)(=O)NC(C(=O)O)C(C)O)cc1 (stereo not drawn) | > 47.4 µg/mL
COC(=O)c1ccc(CNC(=O)COC(=O)CCC(=O)c2ccc(F)cc2)cc1 | 5.5 µg/mL (≈ 13.7 µM)
Cc1ccccc1OCC(=O)NCCNC(=O)c1ccncc1 | > 47 µg/mL
N#C/C(=C\Nc1ccc(F)c(Cl)c1)S(=O)(=O)c1ccccn1 | 42 µg/mL (≈ 124 µM)
O=C(CNC(=O)c1sc2ccccc2c1Cl)NC1CC1 | 4 µg/mL (≈ 13 µM)
Cc1c(O)nc2ccccn2c1=O | > 26.4 µg/mL
CCN(CC)c1c([N+](=O)[O-])c(=O)oc2ccccc12 | > 39.3 µg/mL
Cc1ccc(N2CN(CCc3ccccc3)CNC2=S)cc1 | 6.5 µg/mL (≈ 20.9 µM)
Cc1ccc(C(=O)OCC(=O)c2ccc[nH]2)s1 | > 37.4 µg/mL
C=CCSc1nc2ccccc2n2cnnc12 | > 36.3 µg/mL
Cc1cccc(NS(=O)(=O)c2ccc3c(c2)NC(=O)CC(=O)N3)c1 | > 51.8 µg/mL
Cc1noc(C)c1C(=O)NCCc1ccc(S(N)(=O)=O)cc1 | > 48.5 µg/mL
N[C@@H](Cc1cc(Br)c(O)c(Br)c1)C(=O)O | > 50.8 µg/mL
CC1(C)CC2(C)OCCN2C(=S)N1 (stereo not drawn) | > 30 µg/mL
CSc1ncccc1C(=O)NCc1ccccc1Cl | 38.1 µg/mL (≈ 130 µM)

Structure (SMILES) | solubility kinetic
Clc1nc2ccccc2nc1-c1ccccc1 | 0.6 µg/mL (≈ 2.49 µM)
COc1cccc(NC(=O)Nc2ccc3nc(C)c(C)nc3c2)c1 | 0.9 µg/mL (≈ 2.79 µM)
COC(=O)C(C(=O)OC)c1ncc(C(F)(F)F)cc1Cl | 41.1 µg/mL (≈ 132 µM)
CCC1CCCCN1C(=O)CSc1nc(C)cc(C)n1 (stereo not drawn) | > 44 µg/mL
CC1CN(C(=O)COC(=O)c2ccc3ncsc3c2)CC(C)O1 (stereo not drawn) | > 50.2 µg/mL
OC(CNCc1ccccc1)(c1ccccc1)c1ccccc1 | > 45.5 µg/mL
Cc1ccc(NC(=O)COC(=O)C2CC(=O)N(Cc3ccccc3)C2)cc1F (stereo not drawn) | 46.8 µg/mL (≈ 122 µM)
CC(=O)O.O=S(=O)(CCc1ccncc1)C1Cc2cccc3cccc1c23 (stereo not drawn) | 49.4 µg/mL
O=C(NCc1cccnc1)C(=O)C1C(=O)Nc2ccccc21 (stereo not drawn) | 42.5 µg/mL (≈ 144 µM)
COCCCNC(=S)N1CCCC(c2nc3cc(C)c(C)cc3[nH]2)C1 (stereo not drawn) | 53.2 µg/mL (≈ 148 µM)
Fc1ccc(CNC(=S)NCc2ccc(F)cc2)cc1 | 6.4 µg/mL (≈ 21.9 µM)
COc1ccc(N2CC(C(=O)NC3CCCCC3)CC2=O)cc1 (stereo not drawn) | 25.3 µg/mL (≈ 80 µM)
CCOc1ccccc1C(=O)NC(C(=O)Nc1cccnc1)C(C)C (stereo not drawn) | 33.7 µg/mL (≈ 98.7 µM)
CN(C)C(=O)CSc1nc2cc(S(=O)(=O)N3CCOCC3)ccc2o1 | > 57.8 µg/mL
CCCc1nc(-c2cc3ccccc3[nH]c2=O)no1 | > 38.3 µg/mL
C#CCOc1ccccc1C(N)=O | 25.3 µg/mL (≈ 144 µM)
Cc1cccc(NC(=S)NCc2ccccc2Cl)c1C | < 0.3 µg/mL
CC(C)C(NS(=O)(=O)c1ccccc1)C(=O)N1CCCCCC1 (stereo not drawn) | > 50.8 µg/mL
COc1ccc(C)cc1S(=O)(=O)NCCN1CCOCC1 | > 47.2 µg/mL
O=C(O)CSCC(=O)N1CCCCC1 | > 32.6 µg/mL
Cc1cccc(OCC(=O)OC(C)CN2CCCCC2)c1.Cl (stereo not drawn) | > 49.2 µg/mL
COc1cccc(-n2c(/C=C/c3ccccn3)nc3ccccc3c2=O)c1 | 0.5 µg/mL (≈ 1.41 µM)
CCOc1ccc(NC(=O)NC2CCCCCCC2)cc1 | 0.9 µg/mL (≈ 3.1 µM)
